Laboratory results reported in patent US20070172844A1, “Individualized cancer treatments” (University of South Florida, priority 2005, published 2007).

Experiments:
[1] = test system: adriamycin treated patients; settings: Evans et al data set, n=122; cited from earlier work
[2] = test system: ovarian cancer cell lines; experiment: Cell proliferation assays (MTS, percentage reduction in growth at 120 hr), Example 1; format: cell-based, human; settings: inhibition of proliferation vs probability of pathway activation
Experimental: Cell lines and RNA extraction-The ovarian cancer cell lines, OV90, TO[…], and TO[…] were grown as recommended by the supplier (ATCC, Rockville, Md.). FUOV1, a human ovarian carcinoma, was grown according to the supplier (DSMZ, Braunschweig, Germany). Eight additional cell lines (C13, OV2008, A2780CP, A2780S, IGROV1, T8, OVCAR5 and IMCC3) were provided by Dr. Patricia Kruk, Department of Pathology, College of Medicine (University of South Florida, Tampa, Fla.). […] All tissue culture reagents were obtained from Sigma Aldrich (St. Louis, Mo.). Total RNA was extracted from each cell line and assayed on the Human 133 plus 2.0 arrays. Cell proliferation assays-Assays measuring cell proliferation and the effects of targeted agents have been described previously^36. Briefly, growth curves for the ovarian cancer cell lines were carried out by plating 300-4000 cells per well of a 96-well plate. The growth of cells at 12 hr time points (from t=12 hrs) was determined using the CellTiter 96 Aqueous One Solution Cell Proliferation Assay Kit by Promega, which is a colorimetric method for determining the number of growing cells. […] The degree of proliferation inhibition was plotted as a function of probability of Src pathway activation or E2F3 pathway activation.

[3] = test system: ovarian cancer cell lines; experiment: Cell proliferation assays (percent reduction in growth at 96 hrs), 12 ovarian cancer cell lines, Examples 2 and 3; format: cell-based, human
Experimental: Cell Culture—All liquid media as well as the Thiazolyl Blue Tetrazolium Bromide were purchased from Sigma Aldrich (St. Louis, Mo.). The Src inhibitor SU6656 and the Topotecan hydrochloride were purchased from Calbiochem (San Diego, Calif.). The ovarian cancer cell lines, OV90, OVCA5, TOV21G, and TOV12D were grown as recommended by the supplier (ATCC, Rockville, Md.). FUOV1, a human ovarian carcinoma, was grown according to the supplier (DSMZ; Braunschweig, Germany). Seven additional cell lines (C13, OV2008, A2780CP, A2780S, IGROV1, T8, IMCC3) were provided by Dr. Patricia Kruk, College of Medicine (University of South Florida, Fla.). All of those seven cell lines were grown in RPMI 1640, supplemented with 10% Fetal Bovine Serum, 1% sodium pyruvate, and 1% non essential amino acids. All tissue culture reagents were obtained from Sigma (UK).
Cell proliferation assays—Growth curves for cells were produces out by plating at 500-10,000 cells per well of a 96-well plate. The growth of cells at 12 hr time points (from t=12 hrs) was determined using the CellTiter 96 Aqueous One 23 Solution Cell Proliferation Assay Kit by Promega, which is a calorimetric method for determining the number of growing cells. […] Cumulatively, these experiments determined the concentration of cells to use for each cell line, as well as the dosing range of the inhibitors. […] Sensitivity to topotecan and a Src inhibitor (SU6656), both single alone and combined was determined by quantifying the percent reduction in growth (versus DMSO controls) at 96 hrs. […]
In the analysis of the various oncogenic pathways, analysis of expression data was done as previously described in Bild A, et al., Nature 439:353-357, 2006 and West M, et al., Proc. Natl. Acad. Sci. USA 2001;98(20):11462-7). […] Each oncogenic signature summarizes its constituent genes as a single expression profile, and is derived as the first principal component of that set of genes (the factor corresponding to the largest singular value) as determined by a singular value decomposition. […]

[4] = test system: advanced ovarian cancer patients; experiment: Clinical response to salvage chemotherapy (topotecan, paclitaxel, docetaxel); format: in vivo, human; settings: for Actual Overall response: Ovarian, single agent salvage therapy
From the text: Classification of topotecan response—Response to therapy was retrospectively evaluated from the medical record using standard criteria for patients with measurable disease, based upon WHO guidelines (Miller A B, et al., Cancer 1981;47:207-14). CA-125 was used to classify responses only in the absence of a measurable lesion; CA-125 response criteria were based on established guidelines (Miller A B, et al. Cancer 1981;47:207-14; Rustin G J, et al., Ann. Onco. 110:21-27, 1999). […] A complete response (CR) was defined as a complete disappearance of all measurable and assessable disease or, in the absence of measurable lesions, a normalization of the CA-125 level following topotecan therapy. A partial response (PR) was considered a 50% or greater reduction in the product obtained from measurement of each bi-dimensional lesion for at least 4 weeks or a drop in the CA-125 by at least 50% for at least 4 weeks. Progressive disease (PD) was defined as a 50% or greater increase in the product from any lesion documented within 8 weeks of initiation of therapy, the appearance of any new lesion within 8 weeks of initiation of therapy, or any increase in the CA-125 from baseline at initiation of therapy. Stable disease (SD) was defined as disease not meeting any of the above criteria.
Tissues—We measured expression of 22,283 genes in 12 ovarian cancer cell lines and 48 advanced (FIGO stage III/IV) serous epithelial ovarian carcinomas using Affymetrix U133A GeneChips. All ovarian cancers were obtained at initial cytoreductive surgery from patients treated at H. Lee Moffitt Cancer Center & Research Institute or Duke University Medical Center. All patients received topotecan as salvage chemotherapy after initial platinum based therapy. All tissues were collected under the auspices of a respective institutional IRB approved protocol with written informed consent.
Classification of topotecan response in tumors—Response to therapy was retrospectively evaluated from the medical record using standard criteria for patients with measurable disease, based upon WHO guidelines ((Miller A B, et al., Cancer 1981;47:207-14). CA-125 was used to classify responses only in the absence of a measurable lesion; CA-125 response criteria were based on established guidelines (Miller A B, et al. Cancer 1981;47:207-14; Rustin G J, et al., Ann. Onco. 110:21-27, 1999). A complete responder was defined as a complete disappearance of all measurable and assessable disease or, in the absence of measurable lesions, a normalization of the CA-125 level following topotecan therapy. Non-responders/patients with progressive disease (PD) were defined as a 50% o or greater increase in the primary lesion(s) documented within 8 weeks of initiation of therapy or the appearance of any new lesion within 8 weeks of initiation of therapy.
Full details of the methods used for RNA extraction and development of gene expression signatures representing deregulation of oncogenic pathways in the tumor samples are recently described.^36 Response to therapy was evaluated using standard criteria for patients with measurable disease, based upon WHO guidelines.^28

breast cancer patients = settings: Breast Tumor Data; published neoadjuvant data sets (MDACC TFAC n=51, complete pathologic response; single agent docetaxel n=24); cited from earlier work
[5] = test system: ovarian cancer cell lines; experiment: Cell proliferation assay (MTT, 96 hrs), topotecan and SU6656 in 13 ovarian cell lines; format: cell-based, human; settings: 13 ovarian cancer cell lines
Experimental: Cell proliferation assays. Growth curves for cells were produced by plating 500-10,000 cells per well in 96-well plates. The growth of cells at 12 hr time points (from t=12 hrs) was determined using the CellTiter 96 Aqueous One 23 Solution Cell Proliferation Assay Kit by Promega, which is a colorimetric method for determining the number of growing cells.^36 The growth curves plot the growth rate of cells vs. each concentration of drug tested against individual cell lines. Cumulatively, these experiments determined the concentration of cells to use for each cell line, as well as the dosing range of the inhibitors. The final dose-response curves in our experiments plot the percent of cell population responding to the chemotherapy vs. the concentration of the drug for each cell line. Sensitivity to docetaxel and a phosphatidylinositol 3-kinase (PI3 kinase) inhibitor (LY-294002)^36 in 17 lung cell lines, and topotecan and a Src inhibitor (SU6656) in 13 ovarian cell lines was determined by quantifying the percent reduction in growth (versus DMSO controls) at 96 hrs using a standard MTT colorimetric assay.^36 Concentrations used ranged from 1-10 nM for docetaxel, 300 nM-10 μM (SU6656), and 300 nM-[…] for LY-294002. All experiments were repeated at least three times.

Which “Actual Overall response” value [1] does the source give for COc1cccc2c1C(=O)c1c(O)c3c(c(O)c1C2=O)C[C@@](O)(C(=O)CO)C[C@@H]3O[C@H]1C[C@H](N)[C@H](O)[C@H](C)O1 [Adriamycin, adriamycin] here?
Its value is 24/122 (19.6%).

Which “relationship between predicted pathway deregulation (Src or E2F3) and drug sensitivity” value [2] does the source give for CC[C@H](CO)Nc1nc(NCc2ccccc2)c2ncn(C(C)C)c2n1 [CYC202/R-Roscovitine] here?
Its value is “clear and statistically significant relationship”.

What about the “relationship between predicted adriamycin resistance and sensitivity to cdk inhibitor” value ([3]; ovarian cancer cell lines) of the same molecule?
Its value is “coincides with sensitivity to R-Roscovitine”.

For CC(=O)O[C@@]12CO[C@@H]1C[C@H](O)[C@@]1(C)C(=O)[C@H](O)C3=C(C)[C@@H](OC(=O)[C@H](O)[C@@H](NC(=O)OC(C)(C)C)c4ccccc4)C[C@@](O)([C@@H](OC(=O)c4ccccc4)[C@H]21)C3(C)C [Docetaxel, docetaxel], which “Actual Overall response” value [4] is on record?
Its value is 7/14 (50%).

What about the “Actual Overall response” value (breast cancer patients) of the same molecule?
The value was 13/24 (54.1%).

With CC(=O)O[C@H]1C(=O)[C@@]2(C)[C@H]([C@H](OC(=O)c3ccccc3)[C@]3(O)C[C@H](OC(=O)[C@H](O)[C@@H](NC(=O)c4ccccc4)c4ccccc4)C(C)=C1C3(C)C)[C@]1(OC(C)=O)CO[C@@H]1C[C@@H]2O [Paclitaxel, paclitaxel] as the molecule, how does the “Actual Overall response” value [4] read?
The value was 20/35 (57.1%).

Which “relationship between predicted pathway deregulation (Src or E2F3) and drug sensitivity” value [2] does the source give for CN(C)S(=O)(=O)c1ccc2c(c1)/C(=C/c1cc3c([nH]1)CCCC3)C(=O)N2 [SU6656] here?
The value was “clear and statistically significant relationship”.

What about the “relationship between predicted src-pathway deregulation and response to src-inhibitor alone” value ([3]; 12 ovarian cancer cell lines) of the same molecule?
Its value is “clear relationship”.

And the “effect of Src inhibitor on sensitivity to topotecan” value ([3]; growth inhibition, 12 ovarian cancer cell lines)?
The value was “increases ovarian cancer cell line sensitivity to topotecan”.

What about the “relationship between probability of topotecan resistance and sensitivity to Src pathway inhibitor” value [5] of the same molecule?
The value was “significant linear relationship”.

For CC[C@@]1(O)C(=O)OCc2c1cc1n(c2=O)Cc2cc3c(CN(C)C)c(O)ccc3nc2-1 [Topotecan, topotecan], which “Actual Overall response” value [4] is on record?
The value was 20/48 (41.6%).

And the “patients classified as topotecan non-responders” value ([4]; of 48 patients, non-responder = PD)?
The value was 18.

And the “patients classified as topotecan responders” value ([4]; of 48 patients, responder = CR, PR or SD)?
The value was 30.

Which “relationship between predicted pathway deregulation (Src or E2F3) and drug sensitivity” value [2] does the source give for N.N.[Cl][Pt][Cl] [cisplatin] here?
Its value is “no evident relationship”.
